{"source": "patent US8933290B2", "about": "“Mesh implant” (Sofradim Production SAS, priority 2007, dated 2015)", "test_system": "classical pathway of the complement system", "assay": "Anti-complement activity, CH50 hemolytic assay in total human serum", "type": "biochemical", "conditions": "in solution, sheep erythrocytes", "experimental": "The anti-complement activity of fucans was tested via a CH50 test, a standard hemolytic assay in total human serum. Complement activation in human serum was induced by the introduction of sheep erythrocytes coated with rabbit antibodies and then recognized as foreign elements. […] The amount of released hemoglobin was then determined by an optical density (OD) measurement at about 414 nm. The human serum dilution was adjusted for a known amount of erythrocytes, in order to lyse about 50% of the red blood cells (CH50). In order to check the impact of the fucan on the complement activation in solution, the fucan was added with the sheep erythrocytes. […] Heparin (heparin […] 173 UI/mg, Choay-Sanofi) and fucan […] RED synthesized in the Laboratoire de Recherche sur les Macromolecules (LRM, CNRS UMR 7540, France) were also tested instead of fucan.", "data": [{"substance": "heparin [heparin H108]", "values": [{"measurement": "IC50 (median inhibition concentration), anti-complement activity", "result": "about 30 μg/mL"}]}]}
